Data on seven molecules can be found in ChEMBL document CHEMBL4177717, “7-Methylguanosine monophosphate analogues with 5'-(1,2,3-triazoyl) moiety: Synthesis and evaluation as the inhibitors of cNIIIB nucleotidase” (Bioorg Med Chem, 2018).

In data set [1] the target is T1, 7-methylguanosine phosphate-specific 5'-nucleotidase (Homo sapiens) (UniProt Q969T7).
T1 sequence (whole entry): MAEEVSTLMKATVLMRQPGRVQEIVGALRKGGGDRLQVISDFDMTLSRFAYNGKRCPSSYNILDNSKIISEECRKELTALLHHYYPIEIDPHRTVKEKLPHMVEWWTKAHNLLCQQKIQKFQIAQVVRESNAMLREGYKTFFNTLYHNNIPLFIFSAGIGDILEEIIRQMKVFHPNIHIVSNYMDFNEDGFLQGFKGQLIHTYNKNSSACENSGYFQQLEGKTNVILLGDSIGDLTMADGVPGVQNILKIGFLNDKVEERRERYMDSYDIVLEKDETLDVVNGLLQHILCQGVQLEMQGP
The data set can be described thus: Substrate activity at recombinant His6/SUMO-tagged human cN3B (1 to 300 residues) expressed in Escherichia coli BL21(DE3) RIL assessed as compound dephosphorylation at 100 uM up to 150 mins by HPLC method.

The target of data set [2] is T1, 7-methylguanosine phosphate-specific 5'-nucleotidase (Homo sapiens). As to the kind of experiment: Inhibition of recombinant His6/SUMO-tagged human cN3B (1 to 300 residues) expressed in Escherichia coli BL21(DE3) RIL assessed as reduction in dephosphorylation of m7GMP substrate at 200 uM after 45 mins by malachite green dye based assay relative to control.
The nature of data set [3]: Chemical stability of the compound in pH >8 solution at 100 uM after 24 hrs by RP-HPLC analysis. It is filed as physicochemical.
Data set [4] can be described thus: Chemical stability of the compound in pH 6 to 8 PBS at 100 uM after 24 hrs by RP-HPLC analysis. It is filed as physicochemical. To be noted: buffer, pH 6, 24 h.
The target in data set [5] is T1, 7-methylguanosine phosphate-specific 5'-nucleotidase (Homo sapiens). The data set can be described thus: Inhibition of recombinant His6/SUMO-tagged human cN3B (1 to 300 residues) expressed in Escherichia coli BL21(DE3) RIL assessed as reduction in dephosphorylation of m7GMP substrate at 200 uM after 45 mins by HPLC method relative to control.
Data set [6] shares this target. As to the kind of experiment: Activation of recombinant His6/SUMO-tagged human cN3B (1 to 300 residues) expressed in Escherichia coli BL21(DE3) RIL assessed as increase in dephosphorylation of m7GMP substrate at 200 uM after 45 mins by HPLC method.
The target is the same in data set [7]. As to the kind of experiment: Activation of recombinant His6/SUMO-tagged human cN3B (1 to 300 residues) expressed in Escherichia coli BL21(DE3) RIL assessed as increase in dephosphorylation of m7GMP substrate at 100 uM after 45 mins by malachite green dye based assay.
A further data set has as its target T2, m7GpppX diphosphatase (Homo sapiens, UniProt Q96C86).
T2 sequence (Q96C86 whole entry): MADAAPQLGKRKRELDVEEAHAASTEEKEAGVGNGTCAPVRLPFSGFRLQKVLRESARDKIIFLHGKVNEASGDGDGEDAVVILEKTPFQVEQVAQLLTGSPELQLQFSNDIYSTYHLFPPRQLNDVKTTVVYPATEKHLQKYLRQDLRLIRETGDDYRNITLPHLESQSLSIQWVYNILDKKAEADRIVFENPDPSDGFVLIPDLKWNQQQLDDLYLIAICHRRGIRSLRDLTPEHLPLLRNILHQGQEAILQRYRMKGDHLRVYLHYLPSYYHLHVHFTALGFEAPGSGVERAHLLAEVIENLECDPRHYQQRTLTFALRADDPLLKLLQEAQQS
The data set can be described thus: Inhibition of human DCPS using m7GMPF as substrate after 30 mins by nucleoside 5'-fluorophosphate probe based HTS assay.

Data set [8] has as its target T3, m7GpppX diphosphatase (Homo sapiens) (UniProt Q96C86).
T3 sequence (whole entry): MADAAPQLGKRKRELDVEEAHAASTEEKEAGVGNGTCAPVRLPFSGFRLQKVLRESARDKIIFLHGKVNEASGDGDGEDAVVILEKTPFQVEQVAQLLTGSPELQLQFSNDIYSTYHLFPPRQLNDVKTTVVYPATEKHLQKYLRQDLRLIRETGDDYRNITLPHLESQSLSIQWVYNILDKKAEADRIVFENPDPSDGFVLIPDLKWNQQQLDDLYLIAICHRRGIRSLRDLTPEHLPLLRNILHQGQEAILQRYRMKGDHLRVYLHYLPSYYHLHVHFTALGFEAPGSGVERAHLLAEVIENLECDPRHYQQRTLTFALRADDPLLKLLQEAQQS
The data set can be described thus: Inhibition of human DCPS using m7GMPF assessed as reduction in conversion of m7GpppG to GDP at 200 uM after 45 mins in presence of human cN3B by HPLC method.

The target in data set [9] is T1, 7-methylguanosine phosphate-specific 5'-nucleotidase (Homo sapiens). The data set can be described thus: Inhibition of recombinant His6/SUMO-tagged human cN3B (1 to 300 residues) expressed in Escherichia coli BL21(DE3) RIL assessed as reduction in conversion of m7GMP to m7Guo at 200 uM after 45 mins in presence of human DCPS by HPLC method.
In data set [10] the target is T4, 7-methylguanosine phosphate-specific 5'-nucleotidase (Homo sapiens, UniProt Q969T7).
T4 sequence (Q969T7 whole entry): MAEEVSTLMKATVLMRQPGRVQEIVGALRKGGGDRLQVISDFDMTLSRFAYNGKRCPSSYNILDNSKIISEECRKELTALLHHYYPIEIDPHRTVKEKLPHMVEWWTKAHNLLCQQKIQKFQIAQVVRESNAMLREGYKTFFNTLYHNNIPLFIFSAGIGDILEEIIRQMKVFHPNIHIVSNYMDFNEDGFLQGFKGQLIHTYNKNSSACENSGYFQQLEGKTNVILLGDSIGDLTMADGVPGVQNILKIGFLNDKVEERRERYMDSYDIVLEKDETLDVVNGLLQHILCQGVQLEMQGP
The data set can be described thus: Inhibition of recombinant His6/SUMO-tagged human cN3B (1 to 300 residues) expressed in Escherichia coli BL21(DE3) RIL assessed as reduction in dephosphorylation of m7GMP substrate after 45 mins by malachite green dye based assay.

Data set [11] has as its target Eukaryotic translation initiation factor 4E (Homo sapiens, UniProt P06730). As to the kind of experiment: Inhibition of eIF4E (unknown origin).
Another data set is filed under the species Homo sapiens. As to the kind of experiment: Selectivity ratio of IC50 for human DCPS to IC50 for recombinant His6/SUMO-tagged human cN3B (1 to 300 residues) expressed in Escherichia coli BL21(DE3) RIL.
Data set [12] deals with T4, 7-methylguanosine phosphate-specific 5'-nucleotidase. As to the kind of experiment: Inhibition of recombinant His6/SUMO-tagged human cN3B (1 to 300 residues) expressed in Escherichia coli BL21(DE3) RIL assessed as reduction in dephosphorylation of m7GMP substrate after 45 mins by HPLC method.
In data set [13] the target is Eukaryotic translation initiation factor 4E (Mus musculus, UniProt P63073). The data set can be described thus: Inhibition of fluorescein-labeled m7GDPC4H5 binding to mouse eIF4E (28 to 217 residues) by MST method. Particulars: read-out: Kd(app).
Eukaryotic translation initiation factor 4E (Mus musculus, UniProt P63073), sequence (P63073 whole entry, the tested form may be a part): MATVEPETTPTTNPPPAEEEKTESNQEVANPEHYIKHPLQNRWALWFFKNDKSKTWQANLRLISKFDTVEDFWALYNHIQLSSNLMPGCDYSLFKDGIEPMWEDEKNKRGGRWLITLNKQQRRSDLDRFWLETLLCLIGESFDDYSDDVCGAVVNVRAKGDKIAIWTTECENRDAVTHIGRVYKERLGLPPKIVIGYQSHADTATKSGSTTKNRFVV
Substrate in data set [14]: C[n+]1cn([C@@H]2O[C@H](Cn3cc(OCP(=O)([O-])O)nn3)[C@@H](O)[C@H]2O)c2nc(N)[nH]c(=O)c21
The data set can be described thus: Substrate activity at recombinant His6/SUMO-tagged human cN3B (1 to 300 residues) expressed in Escherichia coli BL21(DE3) RIL assessed as compound dephosphorylation by Vmax up to 30 mins by malachite green dye based assay.

Substrate in data set [15]: C[n+]1cn([C@@H]2O[C@H](Cn3cc(OCP(=O)([O-])O)nn3)[C@@H](O)[C@H]2O)c2nc(N)[nH]c(=O)c21
The data set can be described thus: Substrate activity at recombinant His6/SUMO-tagged human cN3B (1 to 300 residues) expressed in Escherichia coli BL21(DE3) RIL assessed as compound dephosphorylation by measuring ratio of Kcat to Km up to 30 mins by malachite green dye based assay.

Substrate in data set [16]: C[n+]1cn([C@@H]2O[C@H](Cn3cc(OCP(=O)([O-])O)nn3)[C@@H](O)[C@H]2O)c2nc(N)[nH]c(=O)c21
As to the kind of experiment: Substrate activity at recombinant His6/SUMO-tagged human cN3B (1 to 300 residues) expressed in Escherichia coli BL21(DE3) RIL assessed as compound dephosphorylation by Kcat up to 30 mins by malachite green dye based assay.

Substrate in data set [17]: C[n+]1cn([C@@H]2O[C@H](Cn3cc(OCP(=O)([O-])O)nn3)[C@@H](O)[C@H]2O)c2nc(N)[nH]c(=O)c21
As to the kind of experiment: Substrate activity at recombinant His6/SUMO-tagged human cN3B (1 to 300 residues) expressed in Escherichia coli BL21(DE3) RIL assessed as compound dephosphorylation up to 30 mins by malachite green dye based assay.

Calls of active or inactive are those of the source. The rule behind the calls is not given here.

Eukaryotic translation initiation factor 4E (Homo sapiens, UniProt P06730), sequence (P06730 whole entry, the tested form may be a part): as the sequence (P63073 whole entry, the tested form may be a part) above, with T12P, P16T, A17T, D174E counted along it

A word on the inhibition: it is the drop in the measured response relative to a control, in per cent. As to `C[n+]1cn([C@@H]2O[C@H](Cn3cc(CP(=O)([O-])O)nn3)[C@@H](O)[C@H]2O)c2nc(N)[nH]c(=O)c21`, the result in [1], in [6] and in data set [7] was inactive. For the same molecule, the inhibition result in [2] and in data set [5] was “inactive” each time. In addition, the Stability result was “Unstable” in data set [3] and “Stable” in [4].
By IC50 is commonly meant the concentration needed to halve the response being measured. For orientation: Ki means a dissociation constant, usually derived from enzyme kinetics or from competition with a known ligand. `C[n+]1cn([C@@H]2O[C@H](Cn3cc(P(=O)([O-])O)nn3)[C@@H](O)[C@H]2O)c2nc(N)[nH]c(=O)c21`: the outcome in [1] was inactive. Besides, the results for the 50% inhibitory concentration (IC50) (on m7GpppX diphosphatase; in [10]; in [12]) were 244 µM, 128 µM and 87.8 µM, respectively. For the same molecule, the inhibition result in data set [8] is “inactive”. In addition, the inhibition result in [9] is “Active”. The inhibition is 51% in data set [2] and 67% in [5]. In addition, the figures for the Stability result in data set [3] and in [4] were “Unstable” and “Stable”, respectively. The molecule further gave a Ki in [11] of 382 µM. For the same molecule, the Ratio IC50 in the data set filed under Homo sapiens turned out to be 3. The Kd in data set [13] came out at 5.9 µM.
As for `C[n+]1cn([C@@H]2O[C@H](COP(=O)([O-])O)[C@@H](O)[C@H]2O)c2nc(N)[nH]c(=O)c21`, the result in data set [1] was Active. It took 42.2 µM to reach half-maximal inhibition against m7GpppX diphosphatase (IC50).
Consider `C[n+]1cn([C@@H]2O[C@H](Cn3cc(CCP(=O)([O-])O)nn3)[C@@H](O)[C@H]2O)c2nc(N)[nH]c(=O)c21`, for which the result in data set [1], in data set [6] and in data set [7] was inactive. Also, the inhibition result in data set [2] and in [5] was “inactive” throughout. Also, the Stability result is listed as “Unstable” in data set [3] and “Stable” in data set [4].
Consider `C[n+]1cn([C@@H]2O[C@H](Cn3cc(OCP(=O)([O-])O)nn3)[C@@H](O)[C@H]2O)c2nc(N)[nH]c(=O)c21`, for which the outcome in data set [1] and in data set [7] was Active. Besides, the figures for the Stability result in data set [3] and in data set [4] were “Unstable” and “Stable”, respectively. In addition, the inhibition result in [5] was “inactive”.
Molecule `C[n+]1cn([C@@H]2O[C@H](COP(=O)([O-])OP(=O)(O)O)[C@@H](O)[C@H]2O)c2nc(N)[nH]c(=O)c21` returned a half-inhibitory concentration (IC50) against m7GpppX diphosphatase of 1.8 µM.

B1: 7-methylguanosine phosphate-specific 5'-nucleotidase (Homo sapiens), Q969T7 (protein)
chain: MAEEVSTLMKATVLMRQPGRVQEIVGALRKGGGDRLQVISDFDMTLSRFAYNGKRCPSSYNILDNSKIISEECRKELTALLHHYYPIEIDPHRTVKEKLPHMVEWWTKAHNLLCQQKIQKFQIAQVVRESNAMLREGYKTFFNTLYHNNIPLFIFSAGIGDILEEIIRQMKVFHPNIHIVSNYMDFNEDGFLQGFKGQLIHTYNKNSSACENSGYFQQLEGKTNVILLGDSIGDLTMADGVPGVQNILKIGFLNDKVEERRERYMDSYDIVLEKDETLDVVNGLLQHILCQGVQLEMQGP
For orientation: Vmax means the top rate of the reaction or transport when substrate is in excess. As usually defined, the kcat/Km is the second-order rate constant that governs catalysis at low substrate concentration. Usually kcat stands for the number of substrate molecules converted per active site and unit of time at saturation. A word on the Km: it is the substrate concentration at which the rate is half of its maximum. Take B1: the Vmax in data set [14] worked out at 1.6 µmol/min/mg. Besides, in data set [15], the kcat/Km came out at 11000 M⁻¹ s⁻¹. Also, the kcat in data set [16] turned out to be 1.16 s⁻¹. In [17], the Km worked out at 82 µM.
